# Results reported in patent US7074789B2, “Kinase inhibitors” (Amgen Inc., priority 1999, dated 2006).
# Assays:
# Type in all cases: biochemical
# IGFR-1 = target: T1, IGFR-1 (Homo sapiens, UniProt P08069); test: Kinase inhibition assay (33P transfer), IGFR-1; conditions: Table 2, kinase inhibition class
# T1 construct: Kinases are expressed as either kinase domains or full length constructs; made in house
# Zap-70 = target: T2, Zap-70 (Homo sapiens, UniProt P43403); test: Kinase inhibition assay (33P transfer), Zap-70; conditions: Table 3; read-out: Zap-1
# T2 construct: Kinases are expressed as either kinase domains or full length constructs; made in house
# T2 sequence (P43403 1-619): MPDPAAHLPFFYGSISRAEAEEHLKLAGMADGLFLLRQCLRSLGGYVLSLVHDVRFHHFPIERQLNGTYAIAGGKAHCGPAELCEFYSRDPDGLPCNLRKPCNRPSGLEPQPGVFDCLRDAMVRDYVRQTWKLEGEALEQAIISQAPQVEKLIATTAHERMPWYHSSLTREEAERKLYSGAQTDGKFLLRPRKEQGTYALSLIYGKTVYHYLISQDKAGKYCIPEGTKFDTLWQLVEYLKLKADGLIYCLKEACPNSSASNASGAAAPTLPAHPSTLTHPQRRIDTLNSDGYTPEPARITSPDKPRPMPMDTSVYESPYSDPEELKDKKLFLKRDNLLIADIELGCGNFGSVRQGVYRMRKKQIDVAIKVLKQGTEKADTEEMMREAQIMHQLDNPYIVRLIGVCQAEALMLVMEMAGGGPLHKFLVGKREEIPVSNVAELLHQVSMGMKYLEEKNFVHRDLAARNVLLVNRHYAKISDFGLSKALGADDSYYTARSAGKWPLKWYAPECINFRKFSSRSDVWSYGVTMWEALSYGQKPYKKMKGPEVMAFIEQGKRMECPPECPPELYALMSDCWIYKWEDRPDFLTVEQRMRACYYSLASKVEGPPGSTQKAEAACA
# Summary of the method: (§1)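 Each kinase, expressed as a GST- or polyHis-tagged domain or full-length protein, phosphorylated plate-attached poly(Glu,Tyr) 4:1 or poly(Arg,Ser) 3:1 using 33P-ATP. Bound radioactivity was measured by scintillation after a 0.5% phosphoric acid wash.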
# Kdr = target: T3, Kdr (Homo sapiens, UniProt P35968); test: Kinase inhibition assay (33P transfer), Kdr; conditions: Table 3; read-out: KDR-1
# T3 construct: Kinases are expressed as either kinase domains or full length constructs; made in house
# Summary of the method: as §1
# Lyn = target: T4, Lyn (Homo sapiens, UniProt P07948); test: Kinase inhibition assay (33P transfer), Lyn; conditions: Table 6, Lyn-1 kinase inhibition class
# T4 construct: Kinases are expressed as either kinase domains or full length constructs; made in house
# Summary of the method: (§2)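 Activity read as 33P incorporation from ATP into poly(Glu,Tyr) 4:1 or poly(Arg,Ser) 3:1 substrate bound to microtiter plates, measured by scintillation after acid washing. Enzymes were affinity-purified GST or polyHis fusions (kinase domain or full length) from E. coli or baculovirus; IC50 = 50% reduction in labelled phosphate.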
# Itk = target: T5, Itk (Homo sapiens, UniProt Q08881); test: Kinase inhibition assay (33P transfer), Itk; conditions: Table 3; read-out: Itk-1
# T5 construct: Kinases are expressed as either kinase domains or full length constructs; made in house
# T5 sequence (Q08881 1-620): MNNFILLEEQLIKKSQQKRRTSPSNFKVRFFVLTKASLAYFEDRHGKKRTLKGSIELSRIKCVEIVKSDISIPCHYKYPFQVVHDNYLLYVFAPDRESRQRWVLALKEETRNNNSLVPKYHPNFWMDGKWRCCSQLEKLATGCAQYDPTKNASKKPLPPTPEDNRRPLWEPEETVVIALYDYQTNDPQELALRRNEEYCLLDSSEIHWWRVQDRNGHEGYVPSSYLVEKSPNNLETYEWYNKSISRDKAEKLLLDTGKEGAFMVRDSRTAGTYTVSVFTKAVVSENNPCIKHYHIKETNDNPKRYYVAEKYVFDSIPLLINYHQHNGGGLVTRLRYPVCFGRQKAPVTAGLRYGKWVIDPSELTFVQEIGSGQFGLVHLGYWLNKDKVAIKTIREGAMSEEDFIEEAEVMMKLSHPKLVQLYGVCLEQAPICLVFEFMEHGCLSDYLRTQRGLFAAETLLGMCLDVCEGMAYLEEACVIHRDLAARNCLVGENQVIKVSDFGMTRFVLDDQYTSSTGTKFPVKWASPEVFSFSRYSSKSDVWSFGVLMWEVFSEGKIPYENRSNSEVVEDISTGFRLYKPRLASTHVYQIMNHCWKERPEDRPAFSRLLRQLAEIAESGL
# Summary of the method: as §2
# ErbB4 = target: T6, ErbB4 (Homo sapiens, UniProt Q15303); test: Kinase inhibition assay (33P transfer), ErbB4; conditions: read-out: ErbB4-1
# T6 construct: Kinases are expressed as either kinase domains or full length constructs; made in house
# Fyn = target: T7, Fyn (Homo sapiens, UniProt P06241); test: Kinase inhibition assay (33P transfer), Fyn; conditions: read-out: Fyn-1
# T7 construct: Kinases are expressed as either kinase domains or full length constructs; made in house
# Summary of the method: as §2
# ErbB2 = target: T8, ErbB2 (Homo sapiens, UniProt P04626); test: Kinase inhibition assay (33P transfer), ErbB2; conditions: read-out: ErbB2-2
# T8 construct: Kinases are expressed as either kinase domains or full length constructs; made in house
# Summary of the method: as §2
# PDGFRB = target: T9, PDGFRB (Homo sapiens, UniProt P09619); test: Kinase inhibition assay (33P transfer), PDGFRB; conditions: read-out: PDGFRB-1
# T9 construct: Kinases are expressed as either kinase domains or full length constructs; made in house
# Ret-1 = target: T10, Ret-1 (Homo sapiens, UniProt P07949); test: Kinase inhibition assay (33P transfer), Ret; conditions: Table 6, Ret-1 kinase inhibition class
# T10 construct: Kinases are expressed as either kinase domains or full length constructs; made in house
# T4 sequence (P07948 whole entry, species assumed, the tested form may be a part): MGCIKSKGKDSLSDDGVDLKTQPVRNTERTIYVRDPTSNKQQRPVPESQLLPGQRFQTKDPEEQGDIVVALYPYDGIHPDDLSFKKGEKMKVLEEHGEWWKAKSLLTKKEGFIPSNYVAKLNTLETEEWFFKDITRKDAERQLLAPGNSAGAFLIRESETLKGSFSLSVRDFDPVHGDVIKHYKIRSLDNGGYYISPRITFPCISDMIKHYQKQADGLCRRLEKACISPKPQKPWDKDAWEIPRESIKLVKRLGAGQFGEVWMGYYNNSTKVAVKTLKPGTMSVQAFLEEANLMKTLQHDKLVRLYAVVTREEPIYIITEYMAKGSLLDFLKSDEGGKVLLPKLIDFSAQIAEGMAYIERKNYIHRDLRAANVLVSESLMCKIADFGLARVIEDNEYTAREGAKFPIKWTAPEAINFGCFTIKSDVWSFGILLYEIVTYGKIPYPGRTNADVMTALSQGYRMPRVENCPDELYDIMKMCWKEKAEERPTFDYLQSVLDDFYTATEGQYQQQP
# T3 sequence (P35968 20-1356, species assumed): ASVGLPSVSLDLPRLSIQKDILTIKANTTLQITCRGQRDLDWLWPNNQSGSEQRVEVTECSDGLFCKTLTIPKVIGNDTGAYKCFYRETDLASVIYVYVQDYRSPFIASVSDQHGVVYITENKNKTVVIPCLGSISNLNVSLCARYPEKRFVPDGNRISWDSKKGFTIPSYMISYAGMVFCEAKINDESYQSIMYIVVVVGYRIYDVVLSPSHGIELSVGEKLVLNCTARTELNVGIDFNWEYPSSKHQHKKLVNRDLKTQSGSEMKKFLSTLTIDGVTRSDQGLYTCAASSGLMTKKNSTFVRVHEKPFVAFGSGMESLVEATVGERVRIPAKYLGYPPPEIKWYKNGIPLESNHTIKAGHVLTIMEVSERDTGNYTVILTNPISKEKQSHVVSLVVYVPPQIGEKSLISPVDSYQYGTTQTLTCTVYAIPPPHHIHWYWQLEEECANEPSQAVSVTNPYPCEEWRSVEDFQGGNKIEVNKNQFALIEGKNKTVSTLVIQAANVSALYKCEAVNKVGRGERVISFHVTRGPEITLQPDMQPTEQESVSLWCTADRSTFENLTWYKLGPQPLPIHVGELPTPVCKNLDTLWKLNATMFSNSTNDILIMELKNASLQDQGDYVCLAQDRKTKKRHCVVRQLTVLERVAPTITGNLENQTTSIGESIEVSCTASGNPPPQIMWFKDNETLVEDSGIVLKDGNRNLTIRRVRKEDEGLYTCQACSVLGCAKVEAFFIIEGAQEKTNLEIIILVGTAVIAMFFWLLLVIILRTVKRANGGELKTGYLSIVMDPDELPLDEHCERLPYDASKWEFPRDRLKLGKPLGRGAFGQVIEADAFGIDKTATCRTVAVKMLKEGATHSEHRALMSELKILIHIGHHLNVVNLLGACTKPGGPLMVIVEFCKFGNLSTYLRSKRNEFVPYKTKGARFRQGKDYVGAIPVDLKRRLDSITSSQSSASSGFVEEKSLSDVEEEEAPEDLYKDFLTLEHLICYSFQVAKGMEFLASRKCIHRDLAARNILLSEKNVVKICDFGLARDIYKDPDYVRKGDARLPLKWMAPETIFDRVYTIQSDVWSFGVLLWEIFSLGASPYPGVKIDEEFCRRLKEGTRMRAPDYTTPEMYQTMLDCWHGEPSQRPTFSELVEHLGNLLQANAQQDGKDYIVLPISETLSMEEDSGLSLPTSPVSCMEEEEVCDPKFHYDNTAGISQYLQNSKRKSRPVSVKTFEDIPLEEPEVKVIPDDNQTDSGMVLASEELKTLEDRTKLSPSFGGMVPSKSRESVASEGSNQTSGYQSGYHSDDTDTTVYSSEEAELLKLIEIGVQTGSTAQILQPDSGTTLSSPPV
# T1 sequence (P08069 31-1367): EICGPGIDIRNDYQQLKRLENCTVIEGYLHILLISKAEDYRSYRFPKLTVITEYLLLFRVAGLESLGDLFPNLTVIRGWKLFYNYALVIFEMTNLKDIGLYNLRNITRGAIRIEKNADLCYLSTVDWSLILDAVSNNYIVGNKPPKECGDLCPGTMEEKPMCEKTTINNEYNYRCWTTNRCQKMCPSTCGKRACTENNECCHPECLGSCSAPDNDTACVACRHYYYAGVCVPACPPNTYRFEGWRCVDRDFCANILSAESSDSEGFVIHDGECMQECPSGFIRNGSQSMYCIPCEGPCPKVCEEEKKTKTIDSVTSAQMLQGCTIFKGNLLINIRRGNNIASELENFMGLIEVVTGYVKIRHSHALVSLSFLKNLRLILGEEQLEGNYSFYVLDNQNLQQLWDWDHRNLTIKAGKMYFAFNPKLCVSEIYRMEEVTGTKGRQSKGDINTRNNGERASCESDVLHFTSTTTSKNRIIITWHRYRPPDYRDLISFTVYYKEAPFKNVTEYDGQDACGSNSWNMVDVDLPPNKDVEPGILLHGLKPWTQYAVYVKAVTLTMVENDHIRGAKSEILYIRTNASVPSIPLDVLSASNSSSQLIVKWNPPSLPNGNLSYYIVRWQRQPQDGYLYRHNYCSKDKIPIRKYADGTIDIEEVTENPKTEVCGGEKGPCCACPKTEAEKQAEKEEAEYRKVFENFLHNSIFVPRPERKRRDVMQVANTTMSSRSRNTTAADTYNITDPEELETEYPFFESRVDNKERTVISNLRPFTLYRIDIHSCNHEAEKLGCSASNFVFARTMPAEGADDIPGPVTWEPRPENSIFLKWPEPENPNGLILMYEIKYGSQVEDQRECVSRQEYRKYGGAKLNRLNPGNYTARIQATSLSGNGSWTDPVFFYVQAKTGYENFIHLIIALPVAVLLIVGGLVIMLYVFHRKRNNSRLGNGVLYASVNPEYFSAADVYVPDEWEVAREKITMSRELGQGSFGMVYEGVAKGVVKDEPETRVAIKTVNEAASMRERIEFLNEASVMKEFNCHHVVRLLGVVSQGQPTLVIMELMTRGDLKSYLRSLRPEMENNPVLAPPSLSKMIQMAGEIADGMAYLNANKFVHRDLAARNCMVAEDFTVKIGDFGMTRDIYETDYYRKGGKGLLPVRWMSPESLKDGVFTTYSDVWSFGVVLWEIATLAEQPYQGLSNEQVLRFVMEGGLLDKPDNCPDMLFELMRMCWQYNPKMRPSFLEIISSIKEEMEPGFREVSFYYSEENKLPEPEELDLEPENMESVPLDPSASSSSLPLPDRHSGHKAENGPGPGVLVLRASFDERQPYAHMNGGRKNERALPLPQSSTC
# T6 sequence (Q15303 26-1308, species assumed): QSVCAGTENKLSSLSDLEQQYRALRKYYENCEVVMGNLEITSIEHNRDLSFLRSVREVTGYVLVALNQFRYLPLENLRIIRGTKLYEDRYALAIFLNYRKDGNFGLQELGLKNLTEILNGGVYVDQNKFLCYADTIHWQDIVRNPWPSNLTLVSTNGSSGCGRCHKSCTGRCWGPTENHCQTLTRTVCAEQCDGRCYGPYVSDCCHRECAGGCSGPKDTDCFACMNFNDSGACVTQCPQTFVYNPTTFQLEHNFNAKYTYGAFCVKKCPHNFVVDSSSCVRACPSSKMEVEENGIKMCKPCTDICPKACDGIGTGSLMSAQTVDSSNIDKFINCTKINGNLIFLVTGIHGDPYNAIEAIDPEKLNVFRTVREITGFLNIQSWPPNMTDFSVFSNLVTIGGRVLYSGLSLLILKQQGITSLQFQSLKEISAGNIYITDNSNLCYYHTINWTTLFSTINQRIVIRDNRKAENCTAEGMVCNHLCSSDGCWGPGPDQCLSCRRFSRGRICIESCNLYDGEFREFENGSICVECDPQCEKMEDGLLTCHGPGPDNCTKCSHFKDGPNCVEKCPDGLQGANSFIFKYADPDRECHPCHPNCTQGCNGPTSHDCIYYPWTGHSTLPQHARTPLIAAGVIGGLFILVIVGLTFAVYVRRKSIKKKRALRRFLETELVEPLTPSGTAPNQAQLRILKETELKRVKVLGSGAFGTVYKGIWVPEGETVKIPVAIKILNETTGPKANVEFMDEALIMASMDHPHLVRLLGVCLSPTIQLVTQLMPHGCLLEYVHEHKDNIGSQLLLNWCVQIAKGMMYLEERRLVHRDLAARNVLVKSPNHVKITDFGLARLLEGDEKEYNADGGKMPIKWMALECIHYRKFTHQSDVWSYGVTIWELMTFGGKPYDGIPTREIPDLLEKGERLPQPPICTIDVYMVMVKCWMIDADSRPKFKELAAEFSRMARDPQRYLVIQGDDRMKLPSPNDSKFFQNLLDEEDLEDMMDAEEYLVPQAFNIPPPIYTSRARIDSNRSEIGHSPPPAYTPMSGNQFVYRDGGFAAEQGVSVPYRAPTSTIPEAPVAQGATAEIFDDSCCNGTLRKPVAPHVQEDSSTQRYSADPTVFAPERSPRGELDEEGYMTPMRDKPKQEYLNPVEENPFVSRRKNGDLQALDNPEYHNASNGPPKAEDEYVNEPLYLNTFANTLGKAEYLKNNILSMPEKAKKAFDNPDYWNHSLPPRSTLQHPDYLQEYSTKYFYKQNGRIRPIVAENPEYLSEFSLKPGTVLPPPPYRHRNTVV
# T7 sequence (P06241 whole entry, species assumed, the tested form may be a part): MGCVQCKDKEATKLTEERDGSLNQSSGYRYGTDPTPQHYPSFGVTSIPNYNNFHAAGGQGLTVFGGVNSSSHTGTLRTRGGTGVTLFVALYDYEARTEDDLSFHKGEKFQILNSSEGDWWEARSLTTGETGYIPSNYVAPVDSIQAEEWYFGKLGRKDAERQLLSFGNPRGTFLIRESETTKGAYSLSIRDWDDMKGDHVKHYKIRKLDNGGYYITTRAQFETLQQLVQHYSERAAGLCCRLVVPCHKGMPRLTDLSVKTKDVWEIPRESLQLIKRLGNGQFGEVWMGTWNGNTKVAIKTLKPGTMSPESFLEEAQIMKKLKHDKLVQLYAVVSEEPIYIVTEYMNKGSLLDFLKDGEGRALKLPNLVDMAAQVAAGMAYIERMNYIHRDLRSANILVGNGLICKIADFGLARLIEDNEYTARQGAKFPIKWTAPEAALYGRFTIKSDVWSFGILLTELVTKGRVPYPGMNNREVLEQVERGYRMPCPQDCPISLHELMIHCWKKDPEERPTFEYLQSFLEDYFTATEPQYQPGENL
IC50 (IGFR-1),IC50 (Zap-70),IC50 (Kdr),IC50 (Lyn),IC50 (Itk),IC50 (ErbB4),IC50 (Fyn),IC50 (ErbB2),IC50 (PDGFRB),IC50 (Ret-1),SMILES
> 9.31 µM,> 9.31 µM,< 0.827 µM,> 9.31 µM,> 9.31 µM,> 9.31 µM,> 9.31 µM,–,–,–,COc1cc(Nc2ncnc(-n3c(Nc4cccc(C)c4)nc4ccccc43)n2)cc(OC)c1OC [Compound 386]
> 9.31 µM,> 9.31 µM,< 0.827 µM,0.827 to 4.96 µM,> 9.31 µM,> 9.31 µM,> 9.31 µM,–,–,–,COc1cc(Nc2ncnc(-n3c(Nc4ccc(C)cc4)nc4ccccc43)n2)cc(OC)c1OC [Compound 385]
> 8.53 µM,> 8.53 µM,0.758 to 4.55 µM,–,4.55 to 6.63 µM,–,–,4.55 to 6.63 µM,< 0.758 µM,–,COC(=O)c1cccc(Nc2nc3ccccc3n2-c2ncnc(Nc3cc(OC)c(OC)c(OC)c3)n2)c1 [Compound 383]
1.15 to 6.93 µM,> 13 µM,< 1.15 µM,10.1 to 13 µM,1.15 to 6.93 µM,> 13 µM,6.93 to 10.1 µM,–,–,–,NC(=O)c1cccc(Nc2ncnc(-n3c(N)nc4ccccc43)n2)c1 [Compound 395]
> 9.31 µM,> 9.31 µM,< 0.827 µM,< 0.827 µM,> 9.31 µM,> 9.31 µM,0.827 to 4.96 µM,–,–,–,COc1cc(Nc2ncnc(-n3c(Nc4ccccc4C)nc4ccccc43)n2)cc(OC)c1OC [Compound 384]
> 8.76 µM,> 8.76 µM,0.779 to 4.67 µM,0.779 to 4.67 µM,> 8.76 µM,6.82 to 8.76 µM,0.779 to 4.67 µM,–,–,–,COc1cc(Nc2ncnc(-n3c(Nc4cccc(C(=O)O)c4)nc4ccccc43)n2)cc(OC)c1OC [Compound 390]
< 1.15 µM,> 13 µM,< 1.15 µM,1.15 to 6.93 µM,< 1.15 µM,1.15 to 6.93 µM,1.15 to 6.93 µM,–,–,–,NC(=O)c1ccc(Nc2ncnc(-n3c(N)nc4ccccc43)n2)cc1 [Compound 396]
> 8.8 µM,> 8.8 µM,0.782 to 4.69 µM,0.782 to 4.69 µM,> 8.8 µM,> 8.8 µM,> 8.8 µM,–,–,–,COc1cc(Nc2ncnc(-n3c(Nc4ccc(C(C)C)cc4)nc4ccccc43)n2)cc(OC)c1OC [Compound 388]
0.923 to 5.54 µM,> 10.4 µM,< 0.923 µM,< 0.923 µM,> 10.4 µM,> 10.4 µM,0.923 to 5.54 µM,–,–,–,COc1cc(Nc2ncnc(Nc3cc(-c4ccccc4)nn3C)n2)cc(OC)c1OC [Compound 394]
> 9.23 µM,> 9.23 µM,< 0.821 µM,0.821 to 4.92 µM,> 9.23 µM,> 9.23 µM,> 9.23 µM,–,–,–,COc1cc(Nc2ncnc(-n3c(Nc4ccc(F)cc4)nc4ccccc43)n2)cc(OC)c1OC [Compound 387]

# The remaining lines, values behind:
SMILES,IC50 (IGFR-1),IC50 (Zap-70),IC50 (Kdr),IC50 (Lyn),IC50 (Itk),IC50 (ErbB4),IC50 (Fyn),IC50 (ErbB2),IC50 (PDGFRB),IC50 (Ret-1)
COc1cc(Nc2ncnc(-n3c(Cl)nc4ccccc43)n2)cc(OC)c1OC [Compound 378],0.969 to 5.81 µM,> 10.9 µM,< 0.969 µM,0.969 to 5.81 µM,> 10.9 µM,> 10.9 µM,5.81 to 8.48 µM,–,–,–
COc1cc(Nc2ncnc(Nc3cc(-c4ccco4)n[nH]3)n2)cc(OC)c1 [Compound 365],< 1.05 µM,1.05 to 6.33 µM,< 1.05 µM,< 1.05 µM,1.05 to 6.33 µM,6.33 to 9.23 µM,1.05 to 6.33 µM,–,–,–
COc1cccc(-c2ncnc(Nc3cc(OC)c(OC)c(OC)c3)n2)c1 [Compound 232],> 12.2 µM,> 12.2 µM,1.09 to 6.51 µM,> 12.2 µM,> 12.2 µM,–,> 12.2 µM,–,–,–
COc1cc(Nc2ncnc(Nc3cc(OC)c(OC)c(OC)c3)n2)cc(OC)c1OC [Compound 76],0.902 to 5.41 µM,> 10.1 µM,0.902 to 5.41 µM,0.902 to 5.41 µM,> 10.1 µM,–,0.902 to 5.41 µM,–,–,–
C#Cc1cccc(Nc2ncnc(Nc3cc(OC)c(OC)c(OC)c3)n2)c1 [Compound 74],< 1.06 µM,> 11.9 µM,1.06 to 6.36 µM,< 1.06 µM,> 11.9 µM,> 11.9 µM,> 11.9 µM,–,–,–
COc1cc(Nc2ncnc(-n3c(Nc4ccc5[nH]ccc5c4)nc4ccccc43)n2)cc(OC)c1OC [Compound 376],0.787 to 4.72 µM,> 8.85 µM,< 0.787 µM,< 0.787 µM,0.787 to 4.72 µM,6.88 to 8.85 µM,0.787 to 4.72 µM,4.72 to 6.88 µM,–,–
COc1cc(Nc2ncnc(Nc3cc(-c4ccc(Cl)cc4)n[nH]3)n2)cc(OC)c1OC [Compound 367],< 0.881 µM,> 9.91 µM,< 0.881 µM,0.881 to 5.29 µM,0.881 to 5.29 µM,> 9.91 µM,0.881 to 5.29 µM,–,–,–
COc1cc(Nc2ncnc(-n3c(NCc4ccccc4)nc4ccccc43)n2)cc(OC)c1OC [Compound 371],> 9.31 µM,> 9.31 µM,< 0.827 µM,< 0.827 µM,> 9.31 µM,> 9.31 µM,< 0.827 µM,> 9.31 µM,–,–
COc1cc(Nc2ncnc(Nc3ccc(N4CCOCC4)cc3)n2)cc(OC)c1OC [Compound 101],> 10.3 µM,> 10.3 µM,0.912 to 5.47 µM,5.47 to 7.98 µM,> 10.3 µM,–,0.912 to 5.47 µM,–,–,–
COc1cc(Nc2ncnc(Nc3cc(C)[nH]n3)n2)cc(OC)c1OC [Compound 88],1.12 to 6.72 µM,> 12.6 µM,< 1.12 µM,1.12 to 6.72 µM,1.12 to 6.72 µM,–,1.12 to 6.72 µM,–,–,–
COc1cc(Nc2ncnc(Nc3ccc4c(c3)Cc3ccccc3-4)n2)cc(OC)c1OC [Compound 95],0.906 to 5.44 µM,7.93 to 10.2 µM,0.906 to 5.44 µM,5.44 to 7.93 µM,> 10.2 µM,–,0.906 to 5.44 µM,–,–,–
COc1cc(Nc2ncnc(-c3c(O)[nH]c4ccccc34)n2)cc(OC)c1OC [Compound 380],6.1 to 8.9 µM,> 11.4 µM,< 1.02 µM,1.02 to 6.1 µM,> 11.4 µM,1.02 to 6.1 µM,1.02 to 6.1 µM,–,–,–
COc1cc(Nc2ncnc(N(c3ccc(Cl)cc3)c3nc4ccccc4[nH]3)n2)cc(OC)c1OC [Compound 374],> 8.93 µM,> 8.93 µM,< 0.794 µM,< 0.794 µM,> 8.93 µM,0.794 to 4.76 µM,0.794 to 4.76 µM,–,–,–
COc1cc(Nc2ncnc(-c3ccnc(NCCCO)c3)n2)cc(OC)c1OC [Compound 180],> 10.9 µM,> 10.9 µM,0.97 to 5.82 µM,0.97 to 5.82 µM,> 10.9 µM,> 10.9 µM,5.82 to 8.49 µM,–,–,–
COc1cc(Nc2ncnc(Nc3ccc(Br)cc3)n2)cc(OC)c1OC [Compound 82],0.925 to 5.55 µM,> 10.4 µM,< 0.925 µM,–,> 10.4 µM,–,–,–,–,0.925 to 5.55 µM
COc1cc(Nc2ncnc(-n3c(Nc4cccc(C(N)=O)c4)nc4ccccc43)n2)cc(OC)c1OC [Compound 377],4.68 to 6.83 µM,0.78 to 4.68 µM,0.78 to 4.68 µM,> 8.78 µM,6.83 to 8.78 µM,> 8.78 µM,> 8.78 µM,–,–,–
